Experimental data: PubChem BioAssay (NCI)
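These data come from cells grown in 96-well plates and exposed to compound for 48 hours at five concentrations. GI50 marks 50% less growth. TGI: concentration producing complete growth inhibition.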

Assays:
Assay in all cases: NCI anticancer screen, dose series, 48 h
[1] = system: CCRF-CEM leukemia
[2] = system: HOP-62 NSCLC
[3] = system: OVCAR-3 ovarian
[4] = system: SF-295 CNS
[5] = system: SN12C renal
[6] = system: SNB-19 CNS
[7] = system: TK-10 renal
[8] = system: HS 578T breast
[9] = system: PC-3 prostate
[10] = system: BT-549 breast

| Structure (SMILES) | TGI [1] | TGI [2] | TGI [3] | TGI [4] | TGI [5] | TGI [6] | TGI [7] | GI50 [1] | GI50 [2] | GI50 [8] | TGI [8] | GI50 [3] | GI50 [9] | TGI [9] | GI50 [4] | GI50 [5] | GI50 [6] | GI50 [7] | GI50 [10] | TGI [10] |
| --- | --- | --- | --- | --- | --- | --- | --- | --- | --- | --- | --- | --- | --- | --- | --- | --- | --- | --- | --- | --- |
| COc1cccc(C2=NC(C(C)C)CO2)c1 (stereo not given) | > 100 µM | > 100 µM | > 100 µM | > 100 µM | > 100 µM | > 100 µM | > 100 µM |  |  |  |  |  |  |  |  |  |  |  |  |  |
| COc1ccc(/C=C2/N=C(c3ccccc3)N(c3c(C)n(C)n(-c4ccccc4)c3=O)C2=O)cc1OC | > 100 µM | > 100 µM | > 100 µM | > 100 µM | > 100 µM | > 100 µM | > 100 µM | > 100 µM | > 100 µM | 60 µM | > 100 µM | > 100 µM | > 100 µM | > 100 µM | > 100 µM | > 100 µM | > 100 µM | > 100 µM |  |  |
| CCOc1ccc(NC(=O)C(=O)CC(=O)c2c(C)n([O-])c3ccccc3[n+]2=O)cc1 | > 100 µM | > 100 µM | > 100 µM | > 100 µM | > 100 µM | > 100 µM | > 100 µM |  |  |  |  |  |  |  |  |  |  |  |  |  |
| Cn1cc(-c2csc(-c3c[nH]c4ccc(F)cc34)n2)c2cnccc21 |  | 2.98 µM | 3.32 µM | 3.25 µM | 3.22 µM | 3.52 µM | 3.75 µM |  | 1.54 µM | 2.26 µM | 5.08 µM | 1.83 µM | 1.69 µM | 3.61 µM | 1.74 µM | 1.72 µM | 1.95 µM | 2.22 µM | 1.63 µM | 3.06 µM |
| O=C1/C(=C/c2ccc(Cl)cc2)CCC1CCN1CCOCC1 (stereo not given) | > 100 µM | > 100 µM | > 100 µM | > 100 µM | > 100 µM | > 100 µM | > 100 µM |  |  |  |  |  |  |  |  |  |  |  |  |  |
| CN(C)C(n1cc2c(c1)-c1ccc(Cl)cc1C(c1ccccc1F)=NC2)n1cc2c(c1)-c1ccc(Cl)cc1C(c1ccccc1F)=NC2 | > 100 µM | > 100 µM | > 100 µM | > 100 µM | > 100 µM | > 100 µM |  |  |  |  | > 100 µM |  |  | > 100 µM |  |  |  |  |  |  |
| CC12CP(=O)(c3ccccc3)CC1C2(Cl)Cl (stereo not given) | > 100 µM | > 100 µM | > 100 µM | > 100 µM | > 100 µM | > 100 µM | > 100 µM |  |  |  |  |  |  |  |  |  |  |  |  |  |
| CC(=O)Oc1c2c(c(O)c3ccccc13)C(n1cnc3c(ncn3C3OC(CO)C4OC(C)(C)OC43)c1=N)CCC2 (stereo not given) | 25.3 µM | 30.6 µM | 27.8 µM | 27 µM | 37.9 µM | 30.3 µM | 35.9 µM |  |  |  |  |  |  |  |  |  |  |  |  |  |
| O=c1ccn([C@H]2CSC[C@@H](CO)C2)c(=O)[nH]1 | > 100 µM | > 100 µM | > 100 µM |  | > 100 µM | > 100 µM | > 100 µM |  |  |  |  |  |  |  |  |  |  |  |  |  |
| C1CN2CCN3CCN4CCN1[P+]243 | > 100 µM | > 100 µM | > 100 µM | > 100 µM | > 100 µM | > 100 µM | > 100 µM |  |  |  |  |  |  |  |  |  |  |  |  |  |
| COC(=O)C(Cc1nc2ccc(Cl)cc2[nH]c1=O)/C(=N\N)C(=O)Nc1cc(C)c(Cl)cc1S(=O)(=O)O (stereo not given) | > 100 µM | > 100 µM | > 100 µM | > 100 µM | > 100 µM | > 100 µM |  |  |  |  |  |  |  |  |  |  |  |  |  |  |
| CCOc1ccc(NC(=O)CC#N)cc1 | > 100 µM | > 100 µM | > 100 µM | > 100 µM | > 100 µM | > 100 µM | > 100 µM |  |  |  |  |  |  |  |  |  |  |  |  |  |
